Tests used:
[1] = tested on: MIA PaCa-2 cells; assay: Crystal violet cell proliferation assay; format: cell-based; conditions: Homo sapiens
From the text: Survivin is an anti-cell death gene that confers resistance of cancer cells to therapeutic agents. […] However, SV40-NLS-QD-siRNA nanocassettes could not be used for in vivo delivery due to the lack of specificity. Inhibition of survivin expression led to the activation of the apoptotic cell death since a high level of active caspase 3 (17 KDa fragments) was detected in those cell groups by Western blot analysis (FIG. 6B). Targeted internalization of hATF QD-survivin siRNA expressing nanocassettes were further confirmed in the MIA PaCa-2 cell line (FIG. 6C).
The effect of survivin gene silencing using hATF-QD-Survivin siRNA expressing nanocassettes was examined on cell sensitivity to chemotherapy drugs. […] Pancreatic cancer cells have a low sensitivity to free gemcitabine treatment and 60% of viable cells were detected by cell proliferation assay 72 h following 100 μM of gemcitabine treatment (FIG. 7A).
Crystal violet assay was used to determine the percentage of viable cells. […] Percentage of viable cells in the experimental groups was determined by measurements O.D. at 590 nm using Spectra Max Plus (Molecular Devices, Sunnyvale, Calif.). […] Cell lysates were analyzed for their levels of caspase 3-like activity, which is generated by caspases 3, 7, and 10, using an Ac-DEVD-AFC substrate (Calbiochem, San Diego, Calif.). […]

[2] = tested on: luciferase positive MCF-10DCIS tumors; assay: Bioluminescence imaging of gene silencing in orthotopic breast cancer xenografts; format: in vivo, nude mice
Description: One of the major obstacles in applying siRNA technology to cancer therapy is the low delivery and gene silencing efficiencies in the tumor following systemic administration. To determine the gene silencing efficiency of uPAR-targeted siRNA expressing nanocassettes, hATF-QD-Luc siRNA nanocassettes were injected via the tail vein into nude mice bearing orthotopic luciferase positive MCF-10DCIS tumors. Non-invasive bioluminescence imaging was used at different time points to determine changes in the luciferase activity in the tumors. Twenty-four hours after the injection, the level of luciferase activity decreased by 42% in the mice that received hATF-QD-Luc siRNA nanocassettes.
To determine whether the changes in luciferase activity in the tumor were the result of specific silencing of the luciferase gene, mice bearing MCF-10DCIS tumors in the low abdominal mammary gland received a tail vein injection of either hATF-QD-Luc siRNA or hATF-QD-control siRNA nanocassettes. […] Therefore, the effect of down regulation of luciferase gene expression is likely due to the targeted delivery of luciferase siRNA-expressing nanocassettes into the tumor.

[3] = tested on: MCF-10DCIS human breast cancer cells; assay: Target specificity / intracellular delivery of nanoparticles, fluorescence microscopy; format: cell-based; conditions: 15 pmol of QDs, 24 h
Description: (§1) To further quantify gene silencing efficiency in tumor cells in vitro and the detection of dynamic changes in the inhibition of gene expression in animal tumor models in vivo using bioluminescence imaging, U6-luciferase (Luc) siRNA expressing nanocassettes from p-Silencer-firefly luciferase shRNA plasmid were amplified. […] The inhibitory effect was enhanced as the copy number of Luc siRNA nanocassettes on each QD increased from 2 to 10 or 20 (FIG. 4B).
Cells were plated in 24-well culture plates for 24 h and then incubated with various nanoparticles at an equal molar concentration (15 pmol of QDs) for 24 h. Control unconjugated DNA cassettes or plasmids were transfected into cells. As a delivery efficiency control, siRNA expressing nanocassettes were also conjugated to QDs with the NLS peptides from SV40 virus, CGGGPKKKRKVE (SEQ ID NO: 10). The peptide sequence was provided by Dr. Steven Dowdy at University of California, San Diego. The SV-40-NLS peptides were synthesized by Genscript USA Inc. (Piscataway, N.J.). Culture plates were then examined using an inverted Olympus fluorescence microscope.

[4] = mouse, in vivo
Description: The tumor bearing mice then received 200 pmol of QDs carrying luciferase siRNA-expressing DNA cassettes (about 2 nmol of DNA cassettes) by tail vein injection. Before and at different time points following the nanoparticle administration, 2 mg/Kg of luciferin substrate was injected intraperitoneally into the mice for 5 min before each bioluminescence imaging procedure using identical imaging conditions and an Olympus OV-100 small animal imaging system (Olympus America Inc.).

[5] = tested on: firefly luciferase gene stably transfected human breast cancer MCF-10DCIS cell; assay: Luciferase activity assay in cell lysates; format: cell-based; conditions: MCF-10DCIS cell lysates, 24 h after nanoparticle incubation
From the text: as §1
Following different treatments, cells were collected from culture plates. Cell lysates were examined for luciferase activity using the Single Luciferase Assay System (Promega Corp., Madison, Wis.). The level of the luciferase activity was measured by a luminometer (Lumistar galaxy, BMG, Winooski, VM) for single samples or using the Xenogen IVIS system (Caliper Life Sciences, Mountain View, Calif.) for 96-well plates.

For `Nc1ccn([C@@H]2O[C@H](CO)[C@@H](O)C2(F)F)c(=O)n1` [gemcitabine], the viability at 1 µM ([1]; 1 μM gemcitabine, free drug treated group, read-out: percentage of viable cells) was 94% and the viability at 100 µM ([1]; 100 μM gemcitabine, 72 h, read-out: viable cells) was 60%.
In the case of “hATF-QD-Luc siRNA nanocassettes: U6-luciferase siRNA expressing DNA nanocassettes conjugated to QDs with human ATF targeting ligands”, the “decrease in level of luciferase activity in tumor” value ([2]; 24 h after tail vein injection, 200 pmol QDs) is reported as 42%, the “inhibitory effect on luciferase activity in tumor” value ([2]; 72 h after injection) is reported as “further enhanced” and the “decrease in luciferase activity in the tumor” value ([2]; 72 h after injection, specificity experiment (FIG. 5C)) is reported as greater than 90%. For the same compound, the “luciferase activity in tumor versus pre-injection” value ([2]; 140 h after injection) was “returned to the pre-injection level”, the “inhibitory effect on luciferase activity in the tumor” value ([2]; 144 h after injection (FIG. 5C)) was “still strong” and the “duration of inhibitory effect on luciferase activity” value ([2]; after tail vein injection) was “over 120 h”. The “entry into cells (intracellular delivery efficiency)” value [3] was “could efficiently enter”, the “levels of QD accumulation in the liver and spleen” value [4] was “markedly decreased” and the luciferase activity [5] was “decrease in luciferase activity”.

Reference: patent US9801953B2, “Nanoparticles carrying nucleic acid cassettes for expressing RNA” (EMORY UNIVERSITY, priority 2012, dated 2017)
